Activity calls are given as the source filed them.
Assays:
Protein RecA = target: T1, Protein RecA (Mycobacterium tuberculosis, UniProt P9WHJ3); experiment: Fluorescence Cell-Free Homogeneous Dose Retest to Identify Inhibitors of RecA-Intein Splicing Activity. [Related pubchem assays (depositor defined):AID2097, AID2223, AID489010, AID492950]; type: functional
T1 sequence (P9WHJ3 whole entry): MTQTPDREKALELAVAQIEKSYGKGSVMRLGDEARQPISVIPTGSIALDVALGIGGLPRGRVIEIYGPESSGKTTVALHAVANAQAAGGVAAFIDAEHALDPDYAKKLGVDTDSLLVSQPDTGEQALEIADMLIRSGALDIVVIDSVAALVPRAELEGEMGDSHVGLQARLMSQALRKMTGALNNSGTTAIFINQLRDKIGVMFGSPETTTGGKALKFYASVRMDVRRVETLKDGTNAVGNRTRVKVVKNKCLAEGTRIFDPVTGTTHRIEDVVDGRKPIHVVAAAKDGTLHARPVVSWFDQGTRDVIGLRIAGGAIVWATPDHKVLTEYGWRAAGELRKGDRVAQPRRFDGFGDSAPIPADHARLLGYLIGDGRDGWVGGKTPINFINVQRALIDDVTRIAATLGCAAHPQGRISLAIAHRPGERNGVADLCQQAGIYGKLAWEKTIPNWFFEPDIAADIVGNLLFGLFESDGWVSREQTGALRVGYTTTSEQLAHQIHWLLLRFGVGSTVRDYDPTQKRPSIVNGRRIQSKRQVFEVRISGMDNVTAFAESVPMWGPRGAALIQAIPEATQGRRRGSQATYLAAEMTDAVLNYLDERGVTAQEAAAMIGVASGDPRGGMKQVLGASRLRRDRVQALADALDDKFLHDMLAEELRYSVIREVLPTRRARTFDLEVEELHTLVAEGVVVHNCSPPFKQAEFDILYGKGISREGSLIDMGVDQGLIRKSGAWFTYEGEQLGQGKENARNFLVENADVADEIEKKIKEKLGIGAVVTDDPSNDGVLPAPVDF

[1] = target: Dual specificity protein phosphatase 3 (Homo sapiens, UniProt P51452); experiment: VHR1 phosphatase inhibitors, biochemical (AID 1878)
[2] = target: Small ubiquitin-related modifier 2 (Homo sapiens, UniProt P61956); experiment: disruption of SUMO2 interaction with SIM peptide – biochemical, fluorescence polarization, uHTS hits, selectivity assay for SUMO1 interaction inhibitor project, dose response (AID 624385); type: functional; conditions: read-out: IC50_Mean
[3] = target: T2, Histone-lysine N-methyltransferase NSD2 (Homo sapiens, UniProt O96028); type: biochemical
T2 sequence (O96028 whole entry): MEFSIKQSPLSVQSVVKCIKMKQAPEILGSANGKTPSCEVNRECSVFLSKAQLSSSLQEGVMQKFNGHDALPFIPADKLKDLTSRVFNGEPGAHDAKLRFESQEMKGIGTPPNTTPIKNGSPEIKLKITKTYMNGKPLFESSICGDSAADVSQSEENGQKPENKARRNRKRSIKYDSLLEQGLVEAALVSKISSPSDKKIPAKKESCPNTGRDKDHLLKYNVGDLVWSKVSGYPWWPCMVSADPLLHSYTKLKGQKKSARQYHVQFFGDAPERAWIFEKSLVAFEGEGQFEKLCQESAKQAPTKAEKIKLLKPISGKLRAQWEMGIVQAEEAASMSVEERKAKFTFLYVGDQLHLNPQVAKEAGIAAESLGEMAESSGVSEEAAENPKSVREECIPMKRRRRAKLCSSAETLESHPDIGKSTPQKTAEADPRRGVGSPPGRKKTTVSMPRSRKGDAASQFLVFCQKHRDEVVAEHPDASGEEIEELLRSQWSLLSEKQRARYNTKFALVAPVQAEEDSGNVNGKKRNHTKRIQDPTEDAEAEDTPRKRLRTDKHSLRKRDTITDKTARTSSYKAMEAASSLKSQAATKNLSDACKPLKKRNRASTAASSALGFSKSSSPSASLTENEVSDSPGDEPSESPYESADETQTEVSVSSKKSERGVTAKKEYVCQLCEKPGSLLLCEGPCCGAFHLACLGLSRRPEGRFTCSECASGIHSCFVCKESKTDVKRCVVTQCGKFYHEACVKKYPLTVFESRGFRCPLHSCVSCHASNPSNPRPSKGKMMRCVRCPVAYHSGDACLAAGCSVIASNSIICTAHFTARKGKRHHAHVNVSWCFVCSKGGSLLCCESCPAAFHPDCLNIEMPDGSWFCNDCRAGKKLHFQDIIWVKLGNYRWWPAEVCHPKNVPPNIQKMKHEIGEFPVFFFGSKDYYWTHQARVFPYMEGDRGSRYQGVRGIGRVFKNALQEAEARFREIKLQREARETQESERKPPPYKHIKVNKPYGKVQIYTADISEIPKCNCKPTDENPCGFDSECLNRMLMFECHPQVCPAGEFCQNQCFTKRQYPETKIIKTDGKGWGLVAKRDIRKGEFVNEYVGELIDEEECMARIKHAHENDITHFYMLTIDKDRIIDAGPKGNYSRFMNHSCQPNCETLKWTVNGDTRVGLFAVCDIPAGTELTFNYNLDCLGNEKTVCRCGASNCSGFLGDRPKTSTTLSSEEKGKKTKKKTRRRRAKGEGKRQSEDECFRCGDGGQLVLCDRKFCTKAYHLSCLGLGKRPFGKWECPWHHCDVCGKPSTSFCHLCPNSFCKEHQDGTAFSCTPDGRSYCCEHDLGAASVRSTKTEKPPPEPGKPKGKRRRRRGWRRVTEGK

[4] = target: T3, Heat shock factor protein 1 (Mus musculus, UniProt P38532); experiment: decrease of HSF1-responsive luciferase luminescence – cell-based, NIH3T3, dose retest, confirmation (AID 2382); type: functional;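 further: NIH3T3 fibroblasts with HSF1-driven luciferase reporter stressed by proteasome inhibitor MG132; luminescence from HSF1-driven luciferase expression after 8 hours of MG132 stress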
T3 sequence (P38532 whole entry): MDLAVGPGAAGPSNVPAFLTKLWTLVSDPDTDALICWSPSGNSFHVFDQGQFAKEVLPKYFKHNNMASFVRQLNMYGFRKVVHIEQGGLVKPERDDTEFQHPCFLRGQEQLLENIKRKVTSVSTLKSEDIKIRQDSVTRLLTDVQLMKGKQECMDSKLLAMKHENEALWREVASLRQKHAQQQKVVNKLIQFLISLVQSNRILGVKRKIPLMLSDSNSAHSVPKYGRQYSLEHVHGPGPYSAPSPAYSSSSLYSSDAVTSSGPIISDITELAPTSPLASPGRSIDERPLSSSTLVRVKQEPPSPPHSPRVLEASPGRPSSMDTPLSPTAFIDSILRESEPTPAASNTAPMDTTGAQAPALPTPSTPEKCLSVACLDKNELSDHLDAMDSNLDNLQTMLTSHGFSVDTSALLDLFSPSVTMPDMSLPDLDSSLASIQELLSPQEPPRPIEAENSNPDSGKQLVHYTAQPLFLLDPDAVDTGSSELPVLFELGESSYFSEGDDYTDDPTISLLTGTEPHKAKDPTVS

[5] = target: G-protein coupled receptor 55 (Homo sapiens, UniProt Q9Y2T6); experiment: inhibition of LPI-stimulated GPR55 beta-arrestin translocation – imaging, U2OS, beta-arrestin-GFP, LPI agonist, primary screen (AID 2013); type: functional;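 further: antagonist potency measured as reduced agonist-driven arrestin aggregation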
[6] = non-specific 3'UTR reporter inhibition in Clone20-Shn3RL – cell-based, Renilla luciferase, cherry-picked, counter-screen for Shn3 inhibitor project, dose response (AID 624133); type: functional

Dual specificity protein phosphatase 3, sequence (P51452 whole entry): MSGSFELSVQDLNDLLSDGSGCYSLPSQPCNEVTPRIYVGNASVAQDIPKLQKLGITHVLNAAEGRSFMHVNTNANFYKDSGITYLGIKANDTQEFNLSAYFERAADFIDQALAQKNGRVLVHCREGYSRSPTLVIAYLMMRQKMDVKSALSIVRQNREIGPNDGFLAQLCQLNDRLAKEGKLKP
G-protein coupled receptor 55, sequence (Q9Y2T6 whole entry): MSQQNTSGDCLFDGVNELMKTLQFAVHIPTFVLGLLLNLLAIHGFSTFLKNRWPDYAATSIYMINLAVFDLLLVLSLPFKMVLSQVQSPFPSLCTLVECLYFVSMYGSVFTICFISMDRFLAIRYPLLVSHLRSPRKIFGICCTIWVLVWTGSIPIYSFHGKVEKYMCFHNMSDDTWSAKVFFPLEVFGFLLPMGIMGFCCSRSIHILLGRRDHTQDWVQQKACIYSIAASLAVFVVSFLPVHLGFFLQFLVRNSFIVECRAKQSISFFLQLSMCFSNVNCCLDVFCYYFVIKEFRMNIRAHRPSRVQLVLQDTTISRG
Small ubiquitin-related modifier 2, sequence (P61956 whole entry): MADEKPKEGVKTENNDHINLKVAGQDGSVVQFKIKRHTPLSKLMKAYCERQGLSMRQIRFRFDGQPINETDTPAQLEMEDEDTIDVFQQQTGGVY

CCN(CC)CCN1C(=O)c2cccc3cc(N)cc(c23)C1=O
EC50 (Protein RecA): 209 nM (active)

O=C(O)c1cccc(-n2cccc2/C=C2/NC(=O)N(c3ccc(Cl)cc3)C2=O)c1
IC50 [1]: < 1230 nM (inactive) | IC50 [2]: 66000 nM (inactive) | AC50 [3]: 720 nM (active)

C=C1C(=O)O[C@@H]2C[C@@H](C)[C@@H]3C=CC(=O)[C@@]3(C)[C@@H](OC(=O)CC(=O)O[C@H]3[C@@H]4C(=C)C(=O)O[C@@H]4C[C@@H](C)[C@@H]4C=CC(=O)[C@]43C)[C@H]12
EC50 [4]: 980 nM (active) | IC50 [5]: 1850 nM (active) | EC50 (Protein RecA): 46000 nM (active) | AC50 [6]: 280 nM (active)

O=S(=O)(O)c1cc(Cl)cc(N=Nc2ccc(O)cc2O)c1O
AC50 [3]: 7270 nM (active)

From ChEMBL document CHEMBL1201862, “PubChem BioAssay data set” (2004)
